pIC50: −log10 of the molar value.
Tests used:
[1] = system: bacterial, trypanosomal, serum and rat adipocyte GPI-PLC/D; test: (G)PI-PLC/D of various origin, results stated collectively; assay type: biochemical
Experimental: GPI-PLD (rat serum) was assayed according to "Hari et al. (1997) Biochim. Biophys. Acta 1355: 293-302" by incubation with 10 µl of human placental aP solution (100 U/ml in 10 mM Hepes/NaOH, pH 7.0, 150 mM NaCl) in 100 µl of 200 mM Tris/maleate (pH 7.0) and 1 % Nonidet P-40 for 10 min at 37°C and subsequent termination of the reaction by addition of 0.4 ml of ice-cold stop buffer (10 mM Hepes/NaOH, pH 7.0, 150 mM NaCl, 0.1 mM MgCl2 and 0.01 mM zinc acetate). GPI-PLC (T. brucei) was assayed as described in "Mensa-Wilmot et al. (1995) Methods Enzymol. 250: 641-655" by incubation with 5 µl of human placental aP solution (see above) in 50 µl of 50 mM Tris/HCl (pH 8.0), 0.25 % Nonidet P-40 and 5 mM EDTA for 30 min at 37°C and subsequent termination of the reaction by addition of 0.45 ml of stop buffer. […]
Pelleted hc/IcDIGs (10-50 µg protein) or (G)PI-PLC reaction mixtures (0.5 ml) were separated into amphiphilic and hydrophilic proteins using partitioning between TX-114-enriched and depleted phases according to "Bordier, C., (1981) J. Biol, Chem. 272: 2542-2550" by suspending in 1 ml of ice-cold TX-114 (1 %), 25 mM Tris/HCl (pH 7.4), 144 mM NaCl or mixing with 0.5 ml of ice-cold TX-114 (2 %), respectively. […] After re-extraction of the lower TX-114-enriched phase, aliquots of the pooled upper TX-114-depleted phase were measured for 5'-Nuc, aP and AChE activity or precipitated (15 % polyethylene glycol 4000) for SDS-PAGE analysis.
GPI-2350 inhibits (G)PI-PLC/D of various origin with high potency and selectivity: The effect of GPI-2350 on (purified or crude) B. cereus PI-PLC, T. brucei GPI-PLC and rat serum GPI-PLD was monitored by their incubation with partially purified solubilized GPI proteins under appropriate conditions (low or high detergent conc.) in the presence of increasing concentrations of GPI-2350. […]

[2] = system: Isolated rat adipocytes; test: localization of lipolytically cleaved and uncleaved GPI-proteins at hcDIGs, IcDIGs and total plasma membranes; assay type: cell-based; conditions: GPI-2350 50 µM, insulin 10 nM, glimepiride 20 µM
[3] = relative to amphiphilic version in PM of basal adipocytes (100)
[4] = relative to amphiphilic version in hcDIGs of basal adipocytes (100)

For `CCCCCCCCCCCCP1(=O)O[C@@H]2[C@H](O)[C@@H](O)[C@H](O)[C@@H](O)[C@@H]2O1` (mixture of isomers) [GPI-2350, myo-inositol-1,2-cyclo-dodecylphosphonic acid], the “blocked GPI-PLC/D by” value ([1]; 50 µM, one range for all four enzymes, Fig. 3) was 60 to 95%, the “reversal of half-maximal inhibition upon 10-fold dilution” value ([1]; bacterial and trypanosomal (G)PI-PLC, dilution with excess of fresh GPI-protein substrate) was “completely reversed” and the pIC50 ([1]; bacterial, trypanosome and serum GPI-PLC and GPI-PLD, one range for all) was 5.00 to 6.70. The “5'-Nuc hydroph. PM” value [2, 3] was 3±2 arb. units, the “Gce1 hydroph. PM” value [2, 3] was 6±3 arb. units and the “aP hydroph. PM” value [2, 3] was 4±3 arb. units. For the same molecule, the “5'-Nuc amphiph IcDIGs” value [2, 4] was 15±6 arb. units, the “5'-Nuc amphiph hcDIGs” value [2, 4] was 112±19 arb. units and the “5'-Nuc hydroph. IcDIGs” value [2, 4] was 3±1 arb. units. The “5'-Nuc hydroph. hcDIGs” value [2, 4] was 7±3 arb. units, the “Gce1 amphiph IcDIGs” value [2, 4] was 28±6 arb. units and the “Gce1 amphiph hcDIGs” value [2, 4] was 109±10 arb. units. For the same molecule, the “Gce1 hydroph. IcDIGs” value [2, 4] was 14±7 arb. units, the “Gce1 hydroph. hcDIGs” value [2, 4] was 21±7 arb. units and the “aP amphiph IcDIGs” value [2, 4] was 19±13 arb. units. For the same molecule, the “aP amphiph hcDIGs” value [2, 4] was 117±11 arb. units.

— EP1566447A1, “Glimepiride- and insulin-induced glycosylphosphatidylinositol-specific phospholipase C regulation” (priority 2004, dated 2005)
